Source: ChEMBL document CHEMBL4477251, “Vialinin A and thelephantin G, potent inhibitors of tumor necrosis factor-α production, inhibit sentrin/SUMO-specific protease 1 enzymatic activity” (Bioorg Med Chem Lett, 2016)
Active and inactive are the calls of the source. No cut-off for these calls is given here.

How the values were obtained:
[1] = molecular target: T1, Sentrin-specific protease 1 (Homo sapiens) (UniProt Q9P0U3); assay: Inhibition of SENP1 in human KU812 cells preincubated for 20 mins followed by addition of HA-SUMO1-VS as substrate measured after 2 hrs by immunoblot analysis; format: cell-based
T1 sequence (whole entry): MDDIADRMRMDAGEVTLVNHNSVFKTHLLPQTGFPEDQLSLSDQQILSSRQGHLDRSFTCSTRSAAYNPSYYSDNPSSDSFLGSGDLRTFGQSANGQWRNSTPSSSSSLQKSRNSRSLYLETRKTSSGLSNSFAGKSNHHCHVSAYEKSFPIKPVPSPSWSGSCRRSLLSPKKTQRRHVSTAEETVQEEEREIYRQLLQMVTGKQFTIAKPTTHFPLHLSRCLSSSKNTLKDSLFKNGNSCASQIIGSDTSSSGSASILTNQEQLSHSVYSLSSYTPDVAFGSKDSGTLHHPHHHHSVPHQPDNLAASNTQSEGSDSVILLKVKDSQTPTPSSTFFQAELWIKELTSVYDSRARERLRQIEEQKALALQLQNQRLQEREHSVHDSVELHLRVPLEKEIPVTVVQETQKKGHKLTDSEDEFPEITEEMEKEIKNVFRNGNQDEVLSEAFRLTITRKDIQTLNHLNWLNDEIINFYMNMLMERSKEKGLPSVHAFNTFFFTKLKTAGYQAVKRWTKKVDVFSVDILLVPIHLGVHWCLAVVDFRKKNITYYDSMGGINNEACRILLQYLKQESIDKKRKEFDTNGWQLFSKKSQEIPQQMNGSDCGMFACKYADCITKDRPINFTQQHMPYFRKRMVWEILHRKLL

[2] = molecular target: T2, Sentrin-specific protease 1 (Homo sapiens, UniProt Q9P0U3); assay: Inhibition of recombinant human 6His-tagged SENP1 catalytic domain expressed in Escherichia coli preincubated for 15 mins followed by addition of SUMO1-AMC as substrate measured after 1 hr by fluorescence analysis
T2 sequence (Q9P0U3 whole entry): T1 sequence (whole entry)

[3] = molecular target: T2, Sentrin-specific protease 1; assay: Inhibition of full-length recombinant human 6His-tagged SENP1 expressed in Escherichia coli BL21 (DE3) preincubated for 15 mins followed by addition of SUMO1-AMC as substrate measured after 1 hr by fluorescence analysis
[4] = molecular target: T2, Sentrin-specific protease 1; assay: Binding affinity to recombinant human 6His-tagged SENP1 catalytic domain expressed in Escherichia coli
Mast cell = assay: Inhibition of TNF-alpha production in mouse bone marrow-derived mast cells measured after 15 mins by ELISA; format: functional, cell-based; conditions: 0.25 h
[5] = molecular target: T2, Sentrin-specific protease 1; assay: Binding affinity to full-length recombinant human 6His-tagged SENP1 expressed in Escherichia coli BL21 (DE3)
RBL-2H3 = assay: Inhibition of TNF-alpha production in antigen-stimulated rat RBL2H3 cells measured after 15 mins by ELISA; conditions: RBL-2H3, 0.25 h

Structure (SMILES) | inhibition [1] | IC50 [2] | IC50 [3] | Ki [4] | IC50 (Mast cell) | Ki [5] | IC50 (RBL-2H3)
CCN1C(=O)C=CC1=O | Active |  |  |  |  |  | 
O=C1C(O)=C(c2ccc(O)cc2)C(=O)C(O)=C1c1ccc(O)cc1 |  | 6.1 µM | 3.79 µM |  |  |  | 
Cc1c(C)c(-c2ccc(OCc3cn(CCCCCCNC(=O)CCCC[C@@H]4SC[C@@H]5NC(=O)N[C@@H]54)nn3)cc2)c(O)c(O)c1-c1ccc(O)cc1 |  | 9.73 µM | > 50 µM |  |  |  | 
O=C(Cc1ccccc1)Oc1c(OC(=O)Cc2ccccc2)c(-c2ccc(O)cc2)c(O)c(O)c1-c1ccc(O)cc1 [VIALININ A] | Active | 1.89 µM | 1.64 µM | 0.93 µM | 40 pM | 1.07 µM | 
O=C(Cc1ccc(O)cc1)Oc1c(OC(=O)Cc2ccc(O)cc2)c(-c2ccc(O)cc2)c(O)c(O)c1-c1ccc(O)cc1 |  |  |  |  |  |  | 0.0035 µM
Cc1c(C)c(-c2ccc(O)cc2)c(O)c(O)c1-c1ccc(O)cc1 | Active | 3.76 µM | 2.71 µM |  |  |  | 
